Assay results reported in article PMC5306265 (Investigational New Drugs, 2016).
Read-outs that look alike come from different tables or passages of the source.

Tests used:
[1] = test system: pERK levels in CD3-positive lymphocytes; experiment: Inhibition of ERK phosphorylation in peripheral blood mononuclear cells (ex vivo stimulation assay, flow cytometry); design: species or system human; settings: for Emax: Homo sapiens, Lymphocyte
Protocol: The extent of ERK phosphorylation in peripheral blood mononuclear cells was determined using an ex vivo stimulation assay; pERK levels in CD3-positive lymphocytes were measured by flow cytometry assessing mean fluorescence (MEFL) under phorbol myristate acetate (PMA)-stimulated and unstimulated conditions. Mean percent change from baseline in blood pERK level over time was determined following single and multiple doses of TAK-733. Noncompartmental analyses, using WinNonlin version 6.1 or higher (Pharsight, Cary, NC), in pharmacodynamic-evaluable patients were used to determine the following pharmacodynamic parameters for inhibition of ERK phosphorylation: maximum observed effect (Emax), time to Emax (TEmax), area under the effect (inhibition)–time curve over the dosing interval (AUEC(0-τ)), and average effect over the dosing interval (Eav).

[2] = once-daily oral dosing, mouse xenograft models; cited from earlier work
[3] = MTD of 16 mg, day 21 of cycle 1, stated as inhibition

What does the source list for `Cn1c(=O)c(F)c(Nc2ccc(I)cc2F)c2c(=O)n(C[C@@H](O)CO)cnc21` [TAK-733]?
AUEC(0-τ) Mean (SD) ([1]; 0.8 mg, day 1): –450 (60) h*%; Eav Mean (SD) ([1]; 0.8 mg, day 1): –19.3 (2.0) %; TEmax Median (range) ([1]; 0.8 mg, day 1): 3.0 (2–4) h; TEmax Median (range) ([1]; 0.8 mg, day 21): 3.0 (2–4) h; AUEC(0-τ) Mean (SD) ([1]; 1.6 mg, day 1): –1175 (134) h*%; Eav Mean (SD) ([1]; 1.6 mg, day 1): –47 (8.2) %; TEmax Median (range) ([1]; 1.6 mg, day 1): 4.0 (4–4) h; AUEC(0-τ) Mean (SD) ([1]; 1.6 mg, day 21): –1020 h*%; Eav Mean (SD) ([1]; 1.6 mg, day 21): –42.2%; AUEC(0-τ) Mean (SD) ([1]; 3.2 mg, day 1): –643 (405) h*%; Eav Mean (SD) ([1]; 3.2 mg, day 1): –26.9 (16.9) %; TEmax Median (range) ([1]; 3.2 mg, day 1): 1.1 (1–4) h; AUEC(0-τ) Mean (SD) ([1]; 3.2 mg, day 21): –785 h*%; Eav Mean (SD) ([1]; 3.2 mg, day 21): –31.6%; AUEC(0-τ) Mean (SD) ([1]; 4.4 mg, day 1): –542 (492) h*%; Eav Mean (SD) ([1]; 4.4 mg, day 1): –22.5 (20.5) %; TEmax Median (range) ([1]; 4.4 mg, day 1): 1.5 (1–2) h; AUEC(0-τ) Mean (SD) ([1]; 4.4 mg, day 21): –164 (447) h*%; Eav Mean (SD) ([1]; 4.4 mg, day 21): –6.4 (18.3) %; TEmax Median (range) ([1]; 4.4 mg, day 21): 2.0 (2–4) h; AUEC(0-τ) Mean (SD) ([1]; 6 mg, day 1): –397 (458) h*%; Eav Mean (SD) ([1]; 6 mg, day 1): –16.5 (18.9) %; TEmax Median (range) ([1]; 6 mg, day 1): 4.0 (1–4) h; AUEC(0-τ) Mean (SD) ([1]; 6 mg, day 21): 29 (464) h*%; Eav Mean (SD) ([1]; 6 mg, day 21): 0.7 (18.7) %; AUEC(0-τ) Mean (SD) ([1]; 8.4 mg, day 1): –981 (624) h*%; Eav Mean (SD) ([1]; 8.4 mg, day 1): –41.6 (26.5) %; TEmax Median (range) ([1]; 8.4 mg, day 1): 3.0 (1–8) h; AUEC(0-τ) Mean (SD) ([1]; 8.4 mg, day 21): –937 (811) h*%; Eav Mean (SD) ([1]; 8.4 mg, day 21): –39.7 (34.2) %; TEmax Median (range) ([1]; 8.4 mg, day 21): 2.1 (1–4) h; AUEC(0-τ) Mean (SD) ([1]; 11.8 mg, day 1): –971 (241) h*%; Eav Mean (SD) ([1]; 11.8 mg, day 1): –40.5 (10.0) %; TEmax Median (range) ([1]; 11.8 mg, day 1): 4.1 (4–8) h; AUEC(0-τ) Mean (SD) ([1]; 11.8 mg, day 21): –1900 h*%; Eav Mean (SD) ([1]; 11.8 mg, day 21): –78.1%; TEmax Median (range) ([1]; 11.8 mg, day 21): 2.2 (2.1–2.3) h; AUEC(0-τ) Mean (SD) ([1]; 16 mg, day 1): –948 (624) h*%; Eav Mean (SD) ([1]; 16 mg, day 1): –40.1 (26.3) %; TEmax Median (range) ([1]; 16 mg, day 1): 4.0 (2–8) h; AUEC(0-τ) Mean (SD) ([1]; 16 mg, day 21): –1947 (125) h*%; Eav Mean (SD) ([1]; 16 mg, day 21): –82.4 (5.5) %; TEmax Median (range) ([1]; 16 mg, day 21): 4.6 (4–24) h; AUEC(0-τ) Mean (SD) ([1]; 22 mg, day 1): –1517 (257) h*%; Eav Mean (SD) ([1]; 22 mg, day 1): –64.5 (11.3) %; TEmax Median (range) ([1]; 22 mg, day 1): 7.6 (1–8) h; AUEC(0-τ) Mean (SD) ([1]; 22 mg, day 21): –1615 (288) h*%; Eav Mean (SD) ([1]; 22 mg, day 21): –66.7 (11.7) %; TEmax Median (range) ([1]; 22 mg, day 21): 3.1 (1–8) h; Emax ([1]; 24 h, 0.8 mg, day 1, % change from baseline in pERK, read-out: Emax Mean (SD)): -40.5%; Emax ([1]; 24 h, 1.6 mg, day 1, % change from baseline in pERK, read-out: Emax Mean (SD)): -61.3%; Emax ([1]; 24 h, 3.2 mg, day 1, % change from baseline in pERK, read-out: Emax Mean (SD)): -41.2%; Emax ([1]; 24 h, 4.4 mg, day 1, % change from baseline in pERK, read-out: Emax Mean (SD)): -49.2%; Emax ([1]; 24 h, 6 mg, day 1, % change from baseline in pERK, read-out: Emax Mean (SD)): -59.8%; Emax ([1]; 24 h, 8.4 mg, day 1, % change from baseline in pERK, read-out: Emax Mean (SD)): -64.5%; Emax ([1]; 24 h, 11.8 mg, day 1, % change from baseline in pERK, read-out: Emax Mean (SD)): -61.3%; Emax ([1]; 24 h, 16 mg, day 1, % change from baseline in pERK, read-out: Emax Mean (SD)): -77.3%; Emax ([1]; 24 h, 22 mg, day 1, % change from baseline in pERK, read-out: Emax Mean (SD)): -84.1%; Emax ([1]; 504 h, 0.8 mg, day 21, % change from baseline in pERK, read-out: Emax Mean (SD)): -39.2%; Emax ([1]; 504 h, 1.6 mg, day 21, % change from baseline in pERK, read-out: Emax Mean (SD)): -43%; Emax ([1]; 504 h, 3.2 mg, day 21, % change from baseline in pERK, read-out: Emax Mean (SD)): -66.8%; Emax ([1]; 504 h, 4.4 mg, day 21, % change from baseline in pERK, read-out: Emax Mean (SD)): -28%; Emax ([1]; 504 h, 6 mg, day 21, % change from baseline in pERK, read-out: Emax Mean (SD)): -64%; Emax ([1]; 504 h, 8.4 mg, day 21, % change from baseline in pERK, read-out: Emax Mean (SD)): -63.8%; Emax ([1]; 504 h, 11.8 mg, day 21, % change from baseline in pERK, read-out: Emax Mean (SD)): -79.3%; Emax ([1]; 504 h, 16 mg, day 21, % change from baseline in pERK, read-out: Emax Mean (SD)): -84.7%; Emax ([1]; 504 h, 22 mg, day 21, % change from baseline in pERK, read-out: Emax Mean (SD)): -82.9%; Emax ([1]; 504 h, MTD of 16 mg, day 21 of cycle 1, stated as inhibition, read-out: mean Emax): 85%; Emax ([1]; 504 h, day 21, doses of 8.4 mg and above, read-out: maximum decrease in pERK (Emax)): 46 to 97%; mean AUEC(0-τ) [1, 3]: 1947 h* %; mean Eav [1, 3]: 82%; duration of pERK decreases ([1]; day 21 of cycle 1, doses of less than 8.4 mg): relatively transient; duration of target inhibition ([1]; day 21 of cycle 1, higher doses (8.4 mg and above)): > 4 h; time after dosing at which plasma concentrations decrease rapidly [2]: 8 to 16 h
